According to patent US20030199449A1, “Combination of ablation and controlled drug delivery for the treatment of cancer” (priority 2002, published 2003):

Experiments:
[1] = in vivo; conditions: RF ablated liver; for concentration at 24 h: male, Sprague Dawley, rat, in vivo, 5-FU concentration in liver tissue
Excerpt: The medial lobe of each liver was exposed through a small midline incision.
For the ablation procedure, the livers were placed on a wire mesh grounding pad and a saline soaked sponge. Ablation was accomplished using a 200-W radiofrequency generator (model CTRF-A, Radionics, Burlington, Mass.) using a 19-gauge needle electrode (model PE-D(10)(2) Radionics , Burlington, Mass.). Ablation was initiated by inserting the needle electrode into a needle tract made with a 23-gauge needle in the center of the lobe. The electrode was inserted to a depth of approximately 8-mm. The hepatic tissue exposed to the radiofrequency current was raised to a temperature of 90° C. for 3 min. […] After the electrode was removed, a 5-FU rod was placed in the probe tract and a fat pad was sewn over the top.

[2] = In-vitro release of 5-FU from poly(CPP:SA) implants; assay type: physicochemical; conditions: 37° C., 120 rpm
Description: The drug 5-fluorouracil was analyzed by HPLC using a Regis C-18 reverse phase column. The mobile phase was deionized water at a flow rate of 0.6 ml/min and the injection volume was10 μl. The detector was set to monitor 266 nm. Calibration standards for the method were prepared as follows: A mass of 13 mg of 5-FU was dissolved in deionized water in a 50 ml volumetric flask to make a 2.00 mM stock solution. Sequential dilutions of the stock solution give standard solutions of 1.00, 0.200, 0.0500, 0.0100 and 0.00100 mM, respectively. The standards for the metabolite 5-FUR were similarly prepared at the concentrations of 2.00, 1.00, 0.200, 0.0500, 0.0100 and 0.00100 mM, respectively. The HPLC peak area of 5-FU and 5-FUR varied linearly with concentrations in the standard test range of 0.001-2 mM.
To measure in-vitro drug release of 5-F U from the implants, solid samples were pre-weighed and placed in a sterile 50-ml conical tubes filled with 20 ml of either phosphate buffered saline (PBS) or fetal bovine serum (FBS). The tubes were placed on the Gyromax 929 shaker adjusted to 37° C. and 120 rpm. Periodically, 0.1 ml of the solutions was transferred into a vial and diluted 20 times with deionized water. Aliquots of 0.1 ml of fresh PBS or FBS was added to the conical tubes each time to maintain a constant volume. […]

[3] = tested on: VX-2 tumor; experiment: 5-FU rods plus radio-frequency ablation in VX-2 tumors in the liver of rabbits, tumor volume; assay type: in vivo, New Zealand white rabbits
Description: (§1) Male New Zealand white rabbits (−3 kg) were used and were cared for in accordance with the Case Western Reserve University animal research center regulations. The rabbits were anesthetized using a combination of xylazine (5 mg/kg body weight BW) and ketamine (50 mg/kg BW), acepromazine (2 mg/kg), and atropine (0.2 mg/kg) given by i.m. injection. The abdomen was shaved and cleaned with povidone-iodine solution (Betadine) and 0.5 ml of Marcaine was administered into the skin at the incision site. A small midline incision was made and the medial lobe of the liver was exposed and exteriorized. The capsule of the medial lobe was punctured with a scalpel blade and a small piece of VX-2 tumor (1 mm^3), which was propagated in another rabbit and stored in liquid nitrogen for later use, was inserted into the liver parenchyma. A small piece of fat was sutured over the implant site. The abdominal muscles were closed with suture and the skin was closed with subcutaneous hidden sutures. During the recovery period, all animals received buprenophrine (Buprenex, 0.5 mg/kg, i.m.), soon after surgery and once again 24 hrs later for pain. If the animals were later perceived to be in pain, additional buprenophrine was given as needed. The rabbits also received a subcutaneous injection of 25 ml of 0.9% saline during recovery and 24 hrs later.
Fourteen days after tumor implantation, the rabbits were anesthetized again using the protocol given above. The medial lobe of the liver was exteriorized and examined for tumor growth. The size of the tumor was approximately 0.5-1.0 cm in diameter and extended into the liver parenchyma. Before radio frequency ablation, a grounding pad was placed under the exteriorized medial lobe of the liver. […]
Tumor volumes after 28 days of growth, calculated from the digital photographs as well as the integration of the CT slices though the tumors of each rabbit, are given in the table below: […]

[4] = Body weight change after RFA plus 5-FU rods in VX-2 tumor rabbits; assay type: in vivo, New Zealand white rabbits; conditions: RFA plus 5-FU subgroup, last 14 days following RFA
Description: as §1, with “later. […]” for “later.”

[5] = tested on: neoplastic tissue; conditions: reported; cited from earlier work
[6] = Local drug concentration distribution in normal (unablated) rat liver after implantation of 5-FU rod; conditions: 24 h, insertion point vs periphery
[7] = ablation + three 5-FU rods at day 14, after 28 days of growth, N = 4

Structure (SMILES) | spatial distribution in ablated liver ([1]; 5-FU rod in probe tract, 24 h and 48 h) | time to release 75% of the 5-FU from implant ([2]; FBS) [days] | time to release 75% of the 5-FU from implant ([2]; PBS) [days] | concentration at 24 h ([1]; between 6 and 18 mm away from the ablation center) [ng/g] | concentration at 24 h ([1]; within 24 h, immediate vicinity of the ablation site (~6 mm radius)) [ng/g] | reduction in tumor size ([3]; ablation + local sustained release 5-FU vs ablation only) [%] | Tumor Volumes, mean (1 SD), CT Scan [3, 7] | Tumor Volumes, mean (1 SD), Digital Photography [3, 7] | increase in body weight [4] [%] | level in neoplastic tissue sufficient for a clinical effect [5] [µg/g] | spatial distribution in normal (unablated) liver [6]
O=c1[nH]c(=O)n([C@H]2C[C@H](O)[C@@H](CO)O2)cc1F [5-FUR, 5-floxuridine] | contains less 5-FUR than that further away from the ablation site | – | – | – | – | – | – | – | – | – | –
O=c1[nH]cc(F)c(=O)[nH]1 [5-FU, 5-fluorouracil] | – | 2 | 9 | ~12000 | ≤ 41000 | ~50 | 1.71 (0.56) cm^3 | 1.24 (0.55) cm^3 | 2 | 0.05 | essentially the same throughout the whole liver
